For one series, the system named is HSV-1 virions. Put plainly: HSV-1 virion lipid peroxidation probed with C11-Bodipy. Also noted: species or system HSV-1 KOS. As to conditions: Human alphaherpesvirus 1, Bodipy probe. As for the experimental part:
(§1) The effects of peroxidators have been commonly evaluated against purified lipids and liposomes as a proxy, but they have not been evaluated against virions ([50], [53][–][55]). We instead directly evaluated the extent of virion lipid peroxidation.
To evaluate virion lipoperoxidation with C11-Bodipy, 50 μL DMEM containing 5 × 10^6 PFU of HSV-1 was added into each well of 96-well plates. Virions were then preloaded with 0.1 mol % of C11-Bodipy for 30 min at 37°C. […] Fluorescence was evaluated in a TECAN Infinite M200 Pro at 550 nm excitation and 580 to 630 nm emission with the reading peak at 600 nm.
(§2) To evaluate the effects of a lipid soluble antioxidant, cells or virions were preloaded with vitamin E-BSA for 3 h at 37°C. Vitamin E-BSA containing medium was removed, and the cells were washed twice with DMEM. Liperfluo (20 or 10 μM for cells or virions, respectively) or C11-Bodipy (1 μM for cells or 0.1 mol% for virions) were preloaded into the cells or virions for 30 min at 37°C.
(§3) To evaluate the effects of water soluble antioxidants, liperfluo (20 μM for cells or 10 μM for virions) or C11-Bodipy (1 μM for cells or 0.1 mol% for virions) were preloaded into the cells or virions for 30 min at 37°C. […] Fluorescence was evaluated in a TECAN Infinite M200 Pro at 515 nm excitation and 545 nm emission for liperfluo or at 550 nm excitation and 580 to 630 nm emission for C11-Bodipy.

In a further series the test system is Vero cells. Nature of the series: Vero cell lipid peroxidation probed with C11-Bodipy. As to conditions: for EC50: Chlorocebus sabaeus, Bodipy probe. The format is cell-based, African green monkey. As for the experimental part:
as §1
To evaluate Vero cell lipoperoxidation with C11-Bodipy, 7.5 × 10^3 cells were seeded into each well of 96-well plates and incubated for 18 h at 37°C in 5% CO2 before preloading them with 1 μM C11-Bodipy for 30 min at 37°C. […] Two hours later, the cells were washed twice and lysed with DMSO:isopropanol. Fluorescence was evaluated in a TECAN Infinite M200 Pro at 550 nm excitation and 580 to 630 nm emission with the reading peak at 600 nm.
as §2, §3

In the next series the test system is HSV-1. Put plainly: HSV-1 virion infectivity (plaquing efficiency) on HFF cells after virion pretreatment. As to conditions: for EC50: Human alphaherpesvirus 1, HFF. As for the experimental part:
The inocula were removed, and the cells were washed and then incubated at 37°C in 5% CO2 until plaques were visible and well-resolved (about 2 days), at which time they were fixed and stained with crystal violet.
HSV-1 suspensions of 20,000 plaque PFU in 250 μL DMEM were mixed 1:1 with 2-fold serial dilutions of the general peroxidators and were incubated in a water bath for 2 h at 37°C. Next, treated virions were diluted 1:100 before being adsorbed onto cells for 1 h at 37°C. The inocula were removed, and the cells were washed twice with cold DMEM. Infected cells were overlaid with DMEM supplemented with 2% (Vero) or 1% (HFF) methylcellulose and 5% FBS and were incubated at 37°C until plaques were visible and well-resolved, typically in about 2 days. Cell monolayers were fixed and stained with 1% crystal violet in 17% methanol for 18 h at RT. The cells were washed, and the plaques were counted and normalized to those produced by the vehicle treated virions.
To test the effects of lipid soluble antioxidants on virions, 10 μM vitamin E loaded onto 1% carrier BSA in the dark for 4.5 h at RT was incubated with 10^6 HSV-1 virions for 3 h at 37°C. […] The treated virions were diluted 1:100 before infecting cells. […] The mix was incubated for 2 h at 37°C, diluted 1:100, and used to infect cells. The infectivity of an aliquot of treated virions was tested via a plaque assay.

Where two headings read alike, the source gives them in different places.

On to `CC(C)CC(C)(C#N)N=NC(C)(C#N)CC(C)C` (centres unmarked) [AMVN, 2,2′-azobis(2,4-dimethylvaleronitrile)], for which the EC50 in the series with HSV-1 virions (no antioxidant, read-out: VP50 (concentration of peroxidant that results in 50% peroxidation in virion lipids)) is 2700 µM; with HSV-1 virions (vitamin C, read-out: VP50 (the source's name)), 2000 µM; in the series on HSV-1 virions (vitamin E, read-out: VP50 (the source's name)) it was 2400 µM; in the series with Vero cells (no antioxidant, read-out: CP50 (concentration of peroxidant that results in 50% peroxidation in cell lipids)) it was 2100 µM; with Vero cells (vitamin C, read-out: CP50 (the source's name)) it was 1700 µM; in the series on Vero cells (vitamin E, read-out: CP50 (the source's name)) it was 3500 µM. Besides, the EC50 with HSV-1 (2 h, no antioxidant, virions treated 2 h at 37°C) came to 1100 µM; with HSV-1 (virions preloaded with vitamin E (10 μM, BSA carrier)), 2700 µM; in the series on HSV-1 (with vitamin C (10 μM)) it was 1400 µM. For the same compound, the “lowest concentration affecting cell lipid peroxidation” value in the series on Vero cells (C11-Bodipy (Fig. 8)) is recorded as 2.5 mM. Besides, the “concentration from which virion infectivity was affected” value in the series with HSV-1 was determined as 0.7 mM. Besides, the “concentration giving a loss of infectivity of about 30%” value with HSV-1 (2 h at 37°C) amounted to 0.7 mM. Moreover, the “SI, CC50/EC50” value is 3.1 with HSV-1 (vitamin C) and 1.8 in the series on HSV-1 (vitamin E).

For the origin of these results see article PMC9603946, “On the Sensitivity of the Virion Envelope to Lipid Peroxidation” (Microbiology Spectrum, 2022).
